Calls of active or inactive are those of the source.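 Rule for the calls: active = compounds whose dose curve reaches a melting temperature rise of about 0.39 degC within the tested concentrations; inconclusive = flat curve with moderate shift, or unreliable curve fit; inactive = the rest.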
Target: Fibroblast growth factor 22 (Homo sapiens) (UniProt Q9HCT0)
Experiment: FGF22 binders by thermal shift, dose response, biophysical, SYPRO orange melt, qPCR instrument, dry powder (AID 743116)
Conditions: Recombinant FGF22 thermal shift, SYPRO orange fluorescence

Fibroblast growth factor 22 (Homo sapiens), sequence (Q9HCT0 whole entry, looked up): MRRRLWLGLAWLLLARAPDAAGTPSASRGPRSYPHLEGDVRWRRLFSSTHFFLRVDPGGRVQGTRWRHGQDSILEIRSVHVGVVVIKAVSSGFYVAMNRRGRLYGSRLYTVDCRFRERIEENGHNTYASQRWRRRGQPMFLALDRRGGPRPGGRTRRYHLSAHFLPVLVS

Row | AC50 | SMILES
1 | 9.97 µM | CSc1ccc(/C=N/NC(=O)c2ccc3nc[nH]c3c2)cc1
2 | 24.3 µM | Nc1ccc(C(=O)N/N=C/c2c[nH]c3ccccc23)cc1
3 | 24 µM | CCc1cc(-c2[nH]ncc2-c2ccc3c(c2)OCCO3)c(O)cc1O
4 | 10.1 µM | COc1cc(/C=N/NC(=O)c2cc3ccccc3[nH]2)ccc1O
5 | 29.5 µM | Nc1cccc(-c2nc3ccc(C(=O)c4ccccc4)cc3[nH]2)c1
6 | 0.318 µM | O=C(N/N=C/c1c[nH]c2ccccc12)c1cccc(O)c1
7 | 24.7 µM | Cc1cc(NC(=O)Nc2ccc3c(ccn3C)c2)sn1
8 | > 38 µM (inactive) | COC(=O)C[C@H]1CC[C@@H]2[C@@H](COc3ccc(NC(=O)Nc4ccc(C#N)cc4)cc3C(=O)N2C)O1
9 | 5.49 µM | O=C(N/N=C/c1c[nH]c2ccccc12)c1cccs1
10 | 36.6 µM | O=C(Nc1ccc(S(=O)(=O)N2CCCC2)cc1)c1ccccc1
11 | 15.5 µM | O=C(N/N=C/c1c[nH]c2ccccc12)c1cccc(Cl)c1

Same assay, conditions: Recombinant FGF22 thermal shift, SYPRO orange fluorescence; at 19.5 µM (top of the series)

Row | melting temperature shift, positive = stabilization | SMILES
12 | inactive | CC(=O)Nc1ccc(NC(=O)Nc2ccccc2)cc1
13 | inactive | Cc1[nH]c2ccccc2c1C(=O)NS(=O)(=O)Nc1ccc(Cl)cc1
14 | inactive | CC(C)c1c(C(=O)N/N=C/c2c[nH]c3ccccc23)nnn1-c1nonc1N

Same assay, conditions: Recombinant FGF22 thermal shift, SYPRO orange fluorescence; at 38 µM (top of the series)

Row | melting temperature shift, positive = stabilization | SMILES
15 | inactive | O=C(NCCc1c[nH]c2ccccc12)c1ccc(Cl)cc1
16 | inactive | COC(=O)C1=C(CS(=O)(=O)c2cc(OC)ccc2OC)NC(=O)NC1c1ccc(O)c(OC)c1 (stereo not given)
17 | inactive | O=C(N/N=C/c1ccc(C(F)(F)F)cc1)c1ccc(O)cc1
18 | inactive | Cc1ccc(S(=O)(=O)N2C[C@H](O)COC[C@H]3O[C@H](CC(=O)NCc4ccc(Cl)c(Cl)c4)CC[C@@H]32)cc1
19 | inactive | CC(=O)c1ccc(NC(=O)Nc2cccnc2)cc1
20 | inactive | Cc1ccc(S(=O)(=O)N2C[C@@H](O)COC[C@@H]3O[C@@H](CC(=O)NCc4ccc(Cl)c(Cl)c4)CC[C@H]32)cc1
21 | inactive | Cc1cc(C(=O)N/N=C/c2c[nH]c3ccccc23)cs1
22 | inactive | O=C(Nc1ccc(S(=O)(=O)N2CCOCC2)cc1)c1ccc(F)cc1
23 | inactive | O=C(O)Cc1ccc(NC(=O)c2ccc(Cl)c(Cl)c2)cc1
24 | inactive | COc1ccc(C)cc1NS(=O)(=O)c1ccc(NS(=O)(=O)c2ccc(NC(C)=O)cc2)cc1
25 | inactive | COC(=O)C[C@H]1CC[C@@H]2[C@@H](COc3ccc(NC(=O)Nc4cccc(C#N)c4)cc3C(=O)N2C)O1
26 | inactive | O=C(Nc1nccs1)C1CC(=O)N(c2ccc(F)cc2)C1 (stereo not given)
27 | inactive | O=C(N/N=C/c1cccc(Oc2ccccc2)c1)c1cccc(O)c1
28 | inactive | CCNC(=O)C[C@@H]1CC[C@H]2[C@H](COc3ccc(NC(=O)Nc4ccc(Cl)cc4)cc3C(=O)N2C)O1
29 | inactive | O=C(C[C@H]1CC[C@@H]2[C@H](COC[C@H](O)CN2S(=O)(=O)c2cccc(Cl)c2)O1)Nc1ccccc1
30 | inactive | CC(=O)Nc1cccc(NC(=O)c2ccc3[nH]c(C)c(C)c3c2)c1
31 | inactive | O=S(=O)(Nc1nnc(C(F)(F)F)s1)c1ccc(Cl)cc1
32 | inactive | Cc1ccc(OCCCC(=O)Nc2ccc(S(=O)(=O)N3CCOCC3)cc2)cc1

Row | melting temperature shift, positive = stabilization | SMILES
33 | inactive | CCN1C(=O)C(CC(=O)Nc2ccc(F)cc2)N(Cc2ccc3c(c2)OCO3)C1=S (stereo not given)
34 | inactive | O=C(Nc1ccc(S(=O)(=O)N2CCCC2)cc1)c1cccs1
35 | inactive | O=C(Nc1cc(Cl)cc(Cl)c1)N[C@@H]1CC[C@@H](CCNS(=O)(=O)c2cccc(F)c2)O[C@@H]1CO
36 | inactive | CCN1C/C(=C/c2cccs2)c2nc3ccccc3c(C(=O)O)c2C1
37 | inactive | O=S1(=O)N=C(N(Cc2cccs2)c2ccc(O)cc2)c2ccccc21
38 | inactive | O=C(Nc1ccc(Cl)cc1)N[C@@H]1CC[C@@H](CCNS(=O)(=O)c2ccccc2F)O[C@H]1CO
39 | inactive | Clc1ccc(Nc2ccc(NCc3ccccc3)nn2)cc1
40 | inactive | Cc1ccn(-c2ccc(NC(=O)c3cccs3)cc2)n1
41 | inactive | COc1ccc(Nc2nc3ccc(OC)cc3s2)cc1
42 | inactive | Cc1[nH]c2ccc(C(=O)OCC(=O)Nc3cccc(S(N)(=O)=O)c3)cc2c1C
43 | inactive | CN(Cc1c(C(=O)N/N=C/c2ccc(O)cc2)nnn1-c1nonc1N)c1ccccc1
44 | inactive | O=C(Nc1cc(Cl)cc(Cl)c1)N[C@@H]1CC[C@@H](CCNS(=O)(=O)c2cccc(F)c2)O[C@H]1CO
45 | inactive | CCOc1cccc(C(=O)Nc2ccc3[nH]ncc3c2)c1
46 | inactive | CCCNC(=O)COC(=O)c1ccccc1C(=O)N(C)C1CCCCC1
47 | inactive | O=C(N/N=C/c1c[nH]c2ccccc12)c1ccc(O)c(O)c1
48 | inactive | COc1ccc(-c2nc(-c3ccc(O)cc3O)cs2)cc1OC
49 | inactive | CCc1cc(-c2n[nH]c(C)c2-c2ccc3c(c2)OCCO3)c(O)cc1O
50 | inactive | CC(=O)Nc1cccc(C(=O)N/N=C/c2c[nH]c3ccccc23)c1

— PubChem BioAssay AID743116 (Broad Institute, 2013)
